Experimental data as given in patent US8362012B2, “Benzoxazine benzimidazole derivative, a pharmaceutical composition comprising the same, and a use thereof” (Daewoong Pharmaceutical Co., Ltd., priority 2008, dated 2013).

Legend:
[1] = biological target: T1, human vanilloid-1 (hVR-1) in hVR-1-HEK293 cell line (Homo sapiens, UniProt Q8NER1); experiment: Inhibitory effect on calcium influx via a vanilloid receptor (capsaicin-stimulated, Fluo-3/AM); type: cell-based; conditions: hVR-1-HEK293 cells, 1 μM of capsaicin, compounds 0.015˜2000 nM; read-out: I.A. (inhibitory activity), IC50 on intracellular calcium influx
T1 construct: expressed in transfected cells; host or cells: HEK293 Tet-on strain, doxycycline-induced
T1 sequence (Q8NER1 whole entry): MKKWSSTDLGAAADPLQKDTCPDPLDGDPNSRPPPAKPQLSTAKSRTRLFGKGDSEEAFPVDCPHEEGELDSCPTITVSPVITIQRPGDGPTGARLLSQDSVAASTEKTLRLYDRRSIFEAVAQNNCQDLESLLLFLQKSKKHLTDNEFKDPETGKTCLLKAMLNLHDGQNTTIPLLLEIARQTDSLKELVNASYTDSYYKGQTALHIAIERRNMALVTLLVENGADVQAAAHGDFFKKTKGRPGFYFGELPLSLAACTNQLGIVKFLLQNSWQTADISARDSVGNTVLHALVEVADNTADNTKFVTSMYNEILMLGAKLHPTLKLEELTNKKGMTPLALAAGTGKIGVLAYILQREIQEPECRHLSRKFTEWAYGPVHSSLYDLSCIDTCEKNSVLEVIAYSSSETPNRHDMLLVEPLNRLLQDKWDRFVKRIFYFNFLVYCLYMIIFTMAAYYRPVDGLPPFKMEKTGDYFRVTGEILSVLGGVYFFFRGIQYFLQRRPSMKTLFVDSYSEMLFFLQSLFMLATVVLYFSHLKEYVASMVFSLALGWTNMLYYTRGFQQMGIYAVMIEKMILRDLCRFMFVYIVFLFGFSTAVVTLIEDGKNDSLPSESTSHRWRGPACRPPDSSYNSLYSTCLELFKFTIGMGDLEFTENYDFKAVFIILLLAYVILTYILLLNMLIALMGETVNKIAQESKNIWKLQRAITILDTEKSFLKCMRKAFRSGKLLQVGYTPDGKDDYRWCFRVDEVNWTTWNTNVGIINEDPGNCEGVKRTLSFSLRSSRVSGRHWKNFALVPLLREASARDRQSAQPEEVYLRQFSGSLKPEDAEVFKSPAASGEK
Summary of the method: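 Doxycycline-induced (1 μg/mL, 2 days) hVR-1-HEK293 cells loaded with Fluo-3/AM for 90 min at 37° C, then stimulated with 1 μM capsaicin. Calcium influx expressed as background-corrected fluorescence relative to positive control, analysed by Hill equation and graded by activity criteria.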

[2] = test system: ICR male mice; experiment: Phenyl-p-quinone (PBQ)-induced writhing experiment using mice; type: in vivo; conditions: orally administered, PBQ (0.02%) intraperitoneally after 1 hour, writhing counted for 10 min

Compound | IC50 [1] [nM] | I.A. (inhibitory activity), % inhibition rate of writhing [2]
Cc1ccc(N2CCOc3c(-c4nc5ccc(C(F)(F)F)cc5[nH]4)cccc32)nc1 [Example 25, 4-(5-methyl-pyridin-2-yl)-8-(6-trifluoromethyl-1H-benzimidazol-2-yl)-3,4-dihydro-2H-benzo[1,4]oxazine] | 20 to 100 | + (<20%)
FC(F)(F)c1ccc2nc(-c3cccc4c3OCCN4c3ccc(Cl)cn3)[nH]c2c1 [Example 20, 4-(5-chloro-pyridin-2-yl)-8-(6-trifluoromethyl-1H-benzimidazol-2-yl)-3,4-dihydro-2H-benzo[1,4]oxazine] | 20 to 100 | ++ (20˜50%)
COC[C@H]1COc2c(-c3nc4ccc(C)c(C)c4[nH]3)cccc2N1c1ccc(C)cn1 [Example 100, (S)-8-(6,7-dimethyl-1H-benzimidazol-2-yl)-3-methoxymethyl-4-(5-methyl-pyridin-2-yl)-3,4-dihydro-2H-benzo[1,4]oxazine] | 20 to 100 | ++ (20˜50%)
COC[C@H]1COc2c(-c3nc4c(C)cc(Br)cc4[nH]3)cccc2N1c1ccc(C)cn1 [Example 104, (S)-8-(6-bromo-4-methyl-1H-benzimidazol-2-yl)-3-methoxymethyl-4-(5-methyl-pyridin-2-yl)-3,4-dihydro-2H-benzo[1,4]oxazine] | < 20 | +++ (51-80%)
COC[C@H]1COc2c(-c3nc4ccc(F)cc4[nH]3)cccc2N1c1ccc(C)cn1 [Example 98, (S)-8-(6-fluoro-1H-benzimidazol-2-yl)-3-methoxymethyl-4-(5-methyl-pyridin-2-yl)-3,4-dihydro-2H-benzo[1,4]oxazine] | 20 to 100 | ++ (20˜50%)
CCc1ccc(N2c3cccc(-c4nc5c(Br)cc(C(F)(F)F)cc5[nH]4)c3OC[C@@H]2CO)nc1 [Example 81, [(S)-8-(4-bromo-6-trifluoromethyl-1H-benzimidazol-2-yl)-4-(5-ethyl-pyridin-2-yl)-3,4-dihydro-2H-benzo[1,4]oxazin-3-yl]-methanol] | < 20 | +++ (51-80%)
Cc1ccc(N2c3cccc(-c4nc5ccc(C(C)(C)C)cc5[nH]4)c3OC[C@@H]2CO)nc1 [Example 34, [(S)-8-(6-tert-butyl-1H-benzimidazol-2-yl)-4-(5-methyl-pyridin-2-yl)-3,4-dihydro-2H-benzo[1,4]oxazin-3-yl]-methanol] | < 20 | + (<20%)

Further lines, with some results ahead:

IC50 [1] [nM] | Compound | I.A. (inhibitory activity), % inhibition rate of writhing [2]
< 20 | COC[C@H]1COc2c(-c3nc4ccc(C(C)(C)C)cc4[nH]3)cccc2N1c1ccc(C)cn1 [Example 88, (S)-8-(6-tert-butyl-1H-benzimidazol-2-yl)-3-methoxymethyl-4-(5-methyl-pyridin-2-yl)-3,4-dihydro-2H-benzo[1,4]oxazine] | ++ (20˜50%)
< 20 | C=Cc1ccc(N2c3cccc(-c4nc5ccc(Cl)cc5[nH]4)c3OC[C@@H]2CO)nc1 [Example 59, [(S)-8-(6-chloro-1H-benzimidazol-2-yl)-4-(5-vinyl-pyridin-2-yl)-3,4-dihydro-2H-benzo[1,4]oxazin-3-yl]-methanol] | +++ (51-80%)
< 20 | Cc1ccc(N2c3cccc(-c4nc5c(C)cccc5[nH]4)c3OC[C@@H]2CO)nc1 [Example 50, [(S)-8-(4-methyl-1H-benzimidazol-2-yl)-4-(5-methyl-pyridine-2-yl)-3,4-dihydro-2H-benzo[1,4]oxazin-3-yl]-methanol] | + (<20%)
< 20 | COC[C@H]1COc2c(-c3nc4ccc(Cl)cc4[nH]3)cccc2N1c1ccc(C)cn1 [Example 91, (S)-3-methoxymethyl-4-(5-methyl-pyridin-2-yl)-8-(6-chloro-1H-benzimidazol-2-yl)-3,4-dihydro-2H-benzo[1,4]oxazine] | ++ (20˜50%)
